Here are results for 13 compounds from patent US4374149A, “α-{[(Arylalkyl)amino]alkyl}-4-hydroxy-3-(lower-alkylsul finyl)benzenemethanols” (Sterling Drug Inc., priority 1978, dated 1983).

The subject of assay [1] is isolated rabbit ear artery. Nature of the assay: Vasodilator activity, perfusion pressure in isolated rabbit ear artery. The text has this: (§1) Vasodilator activity was judged on the basis of observed reduction in perfusion pressure in the hind limb vasculature of the anesthetized dog determined according to the procedure described by Jandhyala et al., European J. Pharm. 17, 357 (1972), and also on the basis of percent reduction in perfusion pressure as measured in the isolated rabbit ear artery according to the method described by De LaLande et al., Aust. J. Exp. Biol. Med. Sci. 43, 639 (1965).
^d Vasodilation is expressed as the percentage reduction in perfusion

Another assay deals with β-adrenergic. Description: β-adrenergic blocking activity, inhibition of isoproterenol-elicited heart rate increase in pentobarbitalized dog. It is filed as in vivo. The conditions noted are these: i.v.; for Dog β-blockade AED50 (approximate intravenous dose for 50% inhibition of isoproterenol-elicited heart rate increase): pentobarbitalized dog.
A further assay deals with blood pressure. Description: Antihypertensive activity, sustained lowering of blood pressure, repeated oral medication, unanesthetized trained renal hypertensive dog. It is filed as in vivo. Particulars: for Actual percentage reduction in blood pressure observed at the indicated dose: 0.5 mg./kg.
The subject of a further assay is systolic blood pressure. Description: Antihypertensive activity, reduction in systolic blood pressure, single oral medication, unanesthetized spontaneous hypertensive rat. The format is in vivo. Particulars: P.O.; for Antihypertensive activity SH Rat AHD40 (single oral dose required to induce a 40 mm. average reduction in systolic blood pressure): unanesthetized SH rat.

The next assay concerns hind limb vasculature. Nature of the assay: Vasodilator activity, perfusion pressure in hind limb vasculature of anesthetized dog. Particulars: for ED50: Canis lupus familiaris, read-out: Vasodilator activity Dog-Leg Perfusion AED50 (approximate intraarterial dose for 50 reduction in perfusion pressure); for Actual percentage reduction in perfusion pressure observed at the indicated dose: 0.025 mg./kg. intraarterial; for Vasodilator activity Dog-Leg Perfusion AED50 (approximate intraarterial dose for 50 reduction in perfusion pressure): acetate salt. The format is in vivo.
Text: as §1
^c AED50 = approximate intraarterial dose required to cause a 50

Where [2] appears, read: intraarterial, anesthetized dog hind limb.
[3] abbreviates: 1 × 10^-4 M, 100 µM, hydrochloride.
[4] abbreviates: 5 × 10^-5 M, 50 µM, acetate salt.

Structures can show the parent of a compound that is named as a salt. Where two headings read alike, the source gives them in different places. A value given as a limit tells only on which side of the number the result lay.

Description for systolic blood pressure: Antihypertensive activity was determined on the basis of the observed reduction in systolic blood pressure measured according to the method of H. Kersten et al., J. Lab. and Clin. Med. 32, 1090 (1947) following a single oral medication in the unanesthetized spontaneous hypertensive rat described by Okamato et al., Japan Circulation J. 27, 282 (1963).
^a AHD40 = single oral dose required to induce a 40 mm. average
Description for β-adrenergic: The β-adrenergic blocking activity was determined in the pentobarbitalized dog as judged by the ability of the test compound to inhibit the elevation in heart rate elicited by a 0.5 mcg./kg. i.v. injection of isoproterenol.
^e AED50 = approximate intravenous dose required to cause 50%

In the case of `COc1ccc(CCC(C)NCC(O)c2ccc(O)c([S+](C)[O-])c2)cc1` (single isomer, unassigned) [Example 10, 4-hydroxy-α-<{[3-(4-methoxyphenyl)-1-methylpropyl]amino}methyl>-3-(methylsulfinyl)benzenemethanol hydrochloride], in assay [1] (2 × 10^-4 M, 200 µM), the “Rabbit Ear Artery vasodilation (percentage reduction in perfusion pressure from control level)” value was found to be 50%. In addition, the “Actual percentage inhibition of heart rate increase above control level observed at the indicated dose” value in the assay on β-adrenergic (0.1 mg./kg.) amounted to 23%. Also, the “Dog β-blockade AED50 (approximate intravenous dose for 50% inhibition of isoproterenol-elicited heart rate increase)” value in the assay with β-adrenergic (hydrochloride) is more than 0.10 mg/kg. Further, in the assay on blood pressure (tid., hydrochloride), the “Actual percentage reduction in blood pressure observed at the indicated dose” value stood at 8% and the “Renal Hypertensive Dog MED10 (minimum repeated oral daily dose for sustained lowering of blood pressure of 10% or greater)” value is more than 0.5 mg/kg. In addition, the “Actual reduction in blood pressure observed at the indicated dose” value (“Actual reduction” for short) in the assay with systolic blood pressure (16.0 mg./kg., hydrochloride) is recorded as -17 mm. Hg. In addition, the “Antihypertensive activity SH Rat AHD40 (single oral dose required to induce a 40 mm. average reduction in systolic blood pressure)” value in the assay on systolic blood pressure (hydrochloride) was more than 16.0 mg/kg.
As to `COc1ccc(CC(C)NCC(O)c2ccc(O)c([S+](C)[O-])c2)cc1OC` (stereo not drawn) [Example 16C, α-<{[2-(3,4-dimethoxyphenyl)-1-methylethyl]amino}methyl>-4-hydroxy-3-(methylsulfinyl)benzenemethanol acetate salt], the ED50 in the assay with hind limb vasculature worked out at 0.5 mg/kg. In addition, the “Rabbit Ear Artery vasodilation (percentage reduction in perfusion pressure from control level)” value in assay [1] (5 × 10^-5 M, 50 µM) was 75%. The “Actual percentage inhibition of heart rate increase above control level observed at the indicated dose” value in the assay with β-adrenergic (0.1 mg./kg.) came to 38%. Moreover, the “Dog β-blockade AED50 (approximate intravenous dose for 50% inhibition of isoproterenol-elicited heart rate increase)” value with β-adrenergic is more than 0.1 mg/kg. In addition, the “Antihypertensive activity SH Rat AHD40 (single oral dose required to induce a 40 mm. average reduction in systolic blood pressure)” value in the assay on systolic blood pressure turned out to be 15.0 mg/kg.
Turning to `CC(=O)O.C[S+]([O-])c1cc(C(O)CNC(C)(C)Cc2ccccc2)ccc1O` (stereo not drawn) [Example 14D, α-{[(1,1-dimethyl-2-phenylethyl)amino]-methyl}-4-hydroxy-3-(methylsulfinyl)benzenemethanol acetate salt], in the assay with hind limb vasculature (setting [2]), the ED50 worked out at 0.5 mg/kg. Also, in assay [1] (1 × 10^-6 M, 1 µM), the “Rabbit Ear Artery vasodilation (percentage reduction in perfusion pressure from control level)” value is given as 29%. The “Actual percentage inhibition of heart rate increase above control level observed at the indicated dose” value in the assay with β-adrenergic (1.0 mg./kg.) was found to be 87%. The “Dog β-blockade AED50 (approximate intravenous dose for 50% inhibition of isoproterenol-elicited heart rate increase)” value in the assay with β-adrenergic is less than 1.0 mg/kg. In the assay on systolic blood pressure, the “Antihypertensive activity SH Rat AHD40 (single oral dose required to induce a 40 mm. average reduction in systolic blood pressure)” value worked out at 20.0 mg/kg.
`COc1ccc(CCC(C)NCC(O)c2ccc(O)c([S+](C)[O-])c2)cc1` (single isomer, unassigned) [Example 11, 4-hydroxy-α-<{[3-(4-methoxyphenyl)-1-methylpropyl]amino}methyl>-3-(methylsulfinyl)benzenemethanol hydrochloride]: the “Rabbit Ear Artery vasodilation (percentage reduction in perfusion pressure from control level)” value in assay [1] (setting [3]) came out at 38%. Moreover, in the assay on β-adrenergic (hydrochloride), the “Dog β-blockade AED50 (approximate intravenous dose for 50% inhibition of isoproterenol-elicited heart rate increase)” value was determined as 0.25 mg/kg. In the assay with blood pressure (tid., hydrochloride), the “Actual percentage reduction in blood pressure observed at the indicated dose” value is 14% and the “Renal Hypertensive Dog MED10 (minimum repeated oral daily dose for sustained lowering of blood pressure of 10% or greater)” value is less than 0.5 mg/kg. The “Actual reduction” value with systolic blood pressure (16.0 mg./kg., hydrochloride) is given as -14 mm. Hg. The “Antihypertensive activity SH Rat AHD40 (single oral dose required to induce a 40 mm. average reduction in systolic blood pressure)” value in the assay on systolic blood pressure (hydrochloride) is more than 16.0 mg/kg.
Regarding `COc1ccc(CCC(C)NCC(O)c2ccc(O)c([S+](C)[O-])c2)cc1` (single isomer, unassigned) [Example 12, 4-hydroxy-α-<{[3-(4-methoxyphenyl)-1-methylpropyl]amino}methyl>-3-(methylsulfinyl)benzenemethanol hydrochloride], the “Rabbit Ear Artery vasodilation (percentage reduction in perfusion pressure from control level)” value in assay [1] (2 × 10^-4 M, 200 µM) is 50%. The “Dog β-blockade AED50 (approximate intravenous dose for 50% inhibition of isoproterenol-elicited heart rate increase)” value with β-adrenergic (hydrochloride) worked out at 0.05 mg/kg. In the assay on blood pressure (tid., hydrochloride), the “Actual percentage reduction in blood pressure observed at the indicated dose” value is given as 14% and the “Renal Hypertensive Dog MED10 (minimum repeated oral daily dose for sustained lowering of blood pressure of 10% or greater)” value is less than 0.5 mg/kg. Besides, the “Antihypertensive activity SH Rat AHD40 (single oral dose required to induce a 40 mm. average reduction in systolic blood pressure)” value in the assay with systolic blood pressure (hydrochloride) was determined as 5 mg/kg.
On to `COc1ccc(CCC(C)NCCc2ccc(O)c([S+](C)[O-])c2)cc1` (single isomer, unassigned) [Example 29C, 4-<2-{[3-(4-methoxyphenyl)-1-methylpropyl]amino}ethyl>-2-(methylsulfinyl)phenol hydrochloride], for which, in the assay with β-adrenergic (1.0 mg./kg.), the “Actual percentage inhibition of heart rate increase above control level observed at the indicated dose” value is on record as 43%. In addition, the “Dog β-blockade AED50 (approximate intravenous dose for 50% inhibition of isoproterenol-elicited heart rate increase)” value in the assay on β-adrenergic is more than 1.0 mg/kg. Also, in the assay on blood pressure (administered once per day), the “Renal Hypertensive Dog MED10 (minimum repeated oral daily dose for sustained lowering of blood pressure of 10% or greater)” value was more than 40 mg/kg. The “Actual reduction” value with systolic blood pressure (20 mg./kg.) is -54 mm. Hg. The “Antihypertensive activity SH Rat AHD40 (single oral dose required to induce a 40 mm. average reduction in systolic blood pressure)” value in the assay with systolic blood pressure was less than 20 mg/kg.
For `COc1ccc(CCC(C)NCC(O)c2ccc(O)c([S+](C)[O-])c2)cc1` (stereo not drawn) [Example 9D, 4-hydroxy-α-<{[3-(4-methoxyphenyl)-1-methylpropyl]amino}methyl>-3-(methylsulfinyl)benzenemethanol acetate salt], the “Actual percentage reduction in perfusion pressure observed at the indicated dose” value in the assay on hind limb vasculature is 25%. The “Vasodilator activity Dog-Leg Perfusion AED50 (approximate intraarterial dose for 50 reduction in perfusion pressure)” value with hind limb vasculature (setting [2]) was more than 0.025 mg/kg. Also, in assay [1] (setting [4]), the “Rabbit Ear Artery vasodilation (percentage reduction in perfusion pressure from control level)” value was found to be 61%. Moreover, the “Dog β-blockade AED50 (approximate intravenous dose for 50% inhibition of isoproterenol-elicited heart rate increase)” value in the assay on β-adrenergic (acetate salt) is 0.0125 mg/kg. For the same compound, the “Antihypertensive activity SH Rat AHD40 (single oral dose required to induce a 40 mm. average reduction in systolic blood pressure)” value with systolic blood pressure (acetate salt) is 20.0 mg/kg.
As to `COc1ccc(CCCC(C)NCC(O)c2ccc(O)c([S+](C)[O-])c2)cc1` (stereo not drawn) [Example 21D, 4-hydroxy-α-<{[4-(4-methoxyphenyl)-1-methylbutyl]amino}methyl>-3-(methylsulfinyl)benzenemethanol acetate salt], in assay [1] (1 × 10^-3 M, 1000 µM), the “Rabbit Ear Artery vasodilation (percentage reduction in perfusion pressure from control level)” value turned out to be 50%. Also, in the assay with systolic blood pressure, the “Antihypertensive activity SH Rat AHD40 (single oral dose required to induce a 40 mm. average reduction in systolic blood pressure)” value worked out at 40.0 mg/kg.
With `COc1ccc(CCC(C)NCC(O)c2ccc(O)c([S+](C)[O-])c2)cc1` (stereo not drawn) [Example 5F, 4-hydroxy-α-<{[3-(4-methoxyphenyl)-1-methylpropyl]amino}methyl>-3-(methylsulfinyl)benzenemethanol], the “Rabbit Ear Artery vasodilation (percentage reduction in perfusion pressure from control level)” value in assay [1] (5 × 10^-5 M, 50 µM) turned out to be 50%. Besides, the “Actual percentage inhibition of heart rate increase above control level observed at the indicated dose” value with β-adrenergic (0.25 mg./kg.) was determined as 70%. The “Dog β-blockade AED50 (approximate intravenous dose for 50% inhibition of isoproterenol-elicited heart rate increase)” value in the assay with β-adrenergic was less than 0.25 mg/kg. Moreover, in the assay with systolic blood pressure, the “Antihypertensive activity SH Rat AHD40 (single oral dose required to induce a 40 mm. average reduction in systolic blood pressure)” value is 4.0 mg/kg.
As to `COc1ccc(CCC(C)NCC(O)c2ccc(O)c([S+](C)[O-])c2)cc1` (stereo not drawn) [Example 4C, 4-hydroxy-α-<{[3-(4-methoxyphenyl)-1-methylpropyl]amino}methyl>-3-(methylsulfinyl)benzenemethanol acetate salt], the “Vasodilator activity Dog-Leg Perfusion AED50 (approximate intraarterial dose for 50 reduction in perfusion pressure)” value with hind limb vasculature (setting [2]) is 0.5 mg/kg. The “Rabbit Ear Artery vasodilation (percentage reduction in perfusion pressure from control level)” value in assay [1] (1 × 10^-4 M, 100 µM, acetate salt) came out at 10%. In the assay with β-adrenergic (acetate salt), the “Dog β-blockade AED50 (approximate intravenous dose for 50% inhibition of isoproterenol-elicited heart rate increase)” value is approximately 0.5 mg/kg. In addition, the “Actual reduction” value in the assay on systolic blood pressure (20 mg./kg.) is on record as -33 mm. Hg. Besides, the “Antihypertensive activity SH Rat AHD40 (single oral dose required to induce a 40 mm. average reduction in systolic blood pressure)” value in the assay with systolic blood pressure (acetate salt) was more than 20.0 mg/kg.
`COc1ccc(CCC(C)NCC(O)c2ccc(O)c([S+](C)[O-])c2)cc1` (single isomer, unassigned) [Example 13C, 4-hydroxy-α-<{[3-(4-methoxyphenyl)-1-methylpropyl]amino}methyl>-3-(methylsulfinyl)benzenemethanol hydrochloride]: the “Rabbit Ear Artery vasodilation (percentage reduction in perfusion pressure from control level)” value in assay [1] (setting [3]) is listed as 50%. In addition, the “Dog β-blockade AED50 (approximate intravenous dose for 50% inhibition of isoproterenol-elicited heart rate increase)” value in the assay with β-adrenergic (hydrochloride) worked out at 0.0125 mg/kg. Also, in the assay with blood pressure (tid., hydrochloride), the “Actual percentage reduction in blood pressure observed at the indicated dose” value is listed as 17% and the “Renal Hypertensive Dog MED10 (minimum repeated oral daily dose for sustained lowering of blood pressure of 10% or greater)” value is less than 0.5 mg/kg. The “Antihypertensive activity SH Rat AHD40 (single oral dose required to induce a 40 mm. average reduction in systolic blood pressure)” value in the assay with systolic blood pressure (hydrochloride) worked out at 3 mg/kg.
Take `COc1ccc(CCC(C)NCC(O)c2ccc(O)c([S+](C)[O-])c2)cc1` (stereo not drawn) [Example 6E, 4-hydroxy-α-<{[3-(4-methoxyphenyl)-1-methylpropyl]amino}methyl>-3-(methylsulfinyl)benzenemethanol acetate salt]: the “Actual percentage reduction in perfusion pressure observed at the indicated dose” value in the assay with hind limb vasculature is 25%. Moreover, the “Vasodilator activity Dog-Leg Perfusion AED50 (approximate intraarterial dose for 50 reduction in perfusion pressure)” value in the assay on hind limb vasculature (setting [2]) was more than 0.025 mg/kg. Besides, the “Rabbit Ear Artery vasodilation (percentage reduction in perfusion pressure from control level)” value in assay [1] (setting [4]) is given as 58%. The “Dog β-blockade AED50 (approximate intravenous dose for 50% inhibition of isoproterenol-elicited heart rate increase)” value with β-adrenergic (acetate salt) worked out at 0.25 mg/kg. Moreover, the “Antihypertensive activity SH Rat AHD40 (single oral dose required to induce a 40 mm. average reduction in systolic blood pressure)” value with systolic blood pressure (acetate salt) stood at 15.0 mg/kg.
For the compound `COc1ccc(CCC(C)NCC(O)c2ccc(O)c([S+](C)[O-])c2)cc1` (stereo not drawn) [Example 5G, 4-hydroxy-α-<{[3-(4-methoxyphenyl)-1-methylpropyl]amino}methyl>-3-(methylsulfinyl)benzenemethanol], the “Rabbit Ear Artery vasodilation (percentage reduction in perfusion pressure from control level)” value in assay [1] (1 × 10^-4 M, 100 µM) was 71%.
